Numbered stars: 1 amine (or outer) side, 2 acyl side, 3 side chain; on linkers, the order of the positions; unused ones are H or OH. Square brackets hold non-standard residues; d marks the D form. Peptide text beside a SMILES is read from it. * marks the point of attachment. Cinnamoyl(2-(1Z-pentenyl)) = CCC/C=C\c1ccccc1/C=C/C(=O)*; X1 = CN(/C(=C/c1ccc(O)cc1)C(=O)[*:2])[*:1]; aThr = C[C@H](O)[C@H](N)C(=O)O
Target: BmAsnRS (Brugia malayi asparaginyl-tRNA synthetase) (Brugia malayi, UniProt P10723)
Assay: nonradioactive pretransfer editing assay, malachite green phosphate detection
Format: biochemical

Chain of BmAsnRS (Brugia malayi asparaginyl-tRNA synthetase) (P10723 whole entry): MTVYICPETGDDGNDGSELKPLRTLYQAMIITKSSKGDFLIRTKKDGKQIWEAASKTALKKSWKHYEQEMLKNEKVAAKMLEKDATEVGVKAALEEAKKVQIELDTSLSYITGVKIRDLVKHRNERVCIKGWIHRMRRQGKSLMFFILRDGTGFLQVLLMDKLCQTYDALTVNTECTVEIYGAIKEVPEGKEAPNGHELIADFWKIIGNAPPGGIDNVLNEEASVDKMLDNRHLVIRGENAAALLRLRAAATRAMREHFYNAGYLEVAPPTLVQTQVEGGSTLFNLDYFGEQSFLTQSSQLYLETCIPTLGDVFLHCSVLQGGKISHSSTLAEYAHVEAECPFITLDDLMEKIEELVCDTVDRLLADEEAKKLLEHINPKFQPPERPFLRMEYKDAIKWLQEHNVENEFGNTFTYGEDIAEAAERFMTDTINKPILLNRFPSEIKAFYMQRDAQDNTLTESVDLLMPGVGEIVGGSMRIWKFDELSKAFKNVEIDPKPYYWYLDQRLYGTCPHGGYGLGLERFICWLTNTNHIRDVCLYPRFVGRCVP

Row | SMILES | IC50 [µM]
1 | CCC/C=C\c1ccccc1/C=C/C(=O)N[C@H](C(=O)N(C)/C(=C/c1ccc(O)cc1)C(=O)N[C@@H](CC(C)C)C(=O)N[C@H](Cc1ccccc1)C(=O)N[C@H](C(=O)O)[C@H](C)O)[C@@H](C)O [compound 3, WS9326D] ({Cinnamoyl(2-(1Z-pentenyl))}-T[X1]L[dF][aThr]-OH) | ~50
2 | CCC/C=C\c1ccccc1/C=C/C(=O)N[C@@H](CO)C(=O)N(C)/C(=C/c1ccc(O)cc1)C(=O)N[C@@H](CC(C)C)C(=O)N[C@H](Cc1ccccc1)C(=O)N[C@H](C(=O)O)[C@H](C)O [compound 4, WS9326E] ({Cinnamoyl(2-(1Z-pentenyl))}-S[X1]L[dF][aThr]-OH) | ~75
